Results as given in patent US20200207734A1, “HETEROCYCLIC COMPOUND AND USE THEREOF” (Takeda Pharmaceutical Company Limited, priority 2017, published 2020).

Molecular target: T1, human orexin type 2 receptor (Homo sapiens, UniProt O43614)
T1 construct: human orexin type 2 receptor cDNA was inserted into pcDNA3.1(+) plasmid vector (Invitrogen); expressed in transfected cells
T1 sequence (O43614 1-444): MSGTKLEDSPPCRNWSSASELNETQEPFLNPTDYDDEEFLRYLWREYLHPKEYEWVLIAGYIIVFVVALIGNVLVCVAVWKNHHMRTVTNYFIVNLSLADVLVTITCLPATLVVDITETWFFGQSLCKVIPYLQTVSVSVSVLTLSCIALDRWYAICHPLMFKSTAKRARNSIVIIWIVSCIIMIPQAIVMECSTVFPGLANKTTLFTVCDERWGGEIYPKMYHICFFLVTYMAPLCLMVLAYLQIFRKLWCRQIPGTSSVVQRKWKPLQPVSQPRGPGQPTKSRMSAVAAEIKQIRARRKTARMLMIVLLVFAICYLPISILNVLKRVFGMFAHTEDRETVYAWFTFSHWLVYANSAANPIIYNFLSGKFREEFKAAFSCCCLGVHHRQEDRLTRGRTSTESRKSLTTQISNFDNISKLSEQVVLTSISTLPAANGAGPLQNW
Assay: Measurement of orexin type 2 receptor agonist activity (calcium fluorescence, CHO cells expressing hOX2R)
Type: cell-based
Details: test compound 3 μM; CHO cells expressing human OX2 receptor; DMSO = 0%, orexin A (human) = 100%
How it was run: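 CHO-dhfr cells stably expressing hOX2R, loaded with Fluo-4 AM in HBSS/20 mM HEPES/0.1% BSA with probenecid, then given test compound. Calcium fluorescence was read for about 2 min 40 sec. Activity (%) was scaled between DMSO (0%) and 10 nM final human orexin A (100%).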

| OX2R agonist activity (3 μM, %) [%] | Structure (SMILES) |
| --- | --- |
| 109 | CS(=O)(=O)N[C@H]1CCN(C(=O)C2(O)CCC2)[C@H]1Cc1csc(-c2cc(F)cc(F)c2)n1 (relative stereo) [Example 323, N-(cis-2-((2-(3,5-difluorophenyl)-1,3-thiazol-4-yl)methyl)-1-((1-hydroxycyclobutyl)carbonyl)pyrrolidin-3-yl)methanesulfonamide] |
| 101 | CS(=O)(=O)N[C@H]1CCN(C(=O)N2CCC2)[C@H]1Cc1cccc(-c2cccc(F)c2)n1 (relative stereo) [Example 333, N-(cis-1-(azetidin-1-ylcarbonyl)-2-((6-(3-fluorophenyl)pyridin-2-yl)methyl)pyrrolidin-3-yl)methanesulfonamide] |
| 103 | CS(=O)(=O)N[C@H]1CCN(C(=O)C2(O)CCC2)[C@H]1Cc1cccc(-c2cccc(F)c2)n1 (relative stereo) [Example 338, N-(cis-2-((6-(3-fluorophenyl)pyridin-2-yl)methyl)-1-((1-hydroxycyclobutyl)carbonyl)pyrrolidin-3-yl)methanesulfonamide] |
| 106 | CC(C)OC(=O)N1CCCC(NS(C)(=O)=O)C1Cc1cccc(-c2ccccc2)n1 (stereo not drawn) [Example 76, Optically Active isopropyl cis-3-((methylsulfonyl)amino)-2-((6-phenylpyridin-2-yl)methyl)piperidine-1-carboxylate] |
| 96 | CCOC(=O)N1CC[C@H](NS(C)(=O)=O)[C@@H]1Cc1cccc(-c2ccccc2)c1 [Example 101, ethyl (2S,3S)-2-(biphenyl-3-ylmethyl)-3-((methylsulfonyl)amino)pyrrolidine-1-carboxylate] |
| 102 | CC(C)OC(=O)N1CCCC(NS(C)(=O)=O)C1Cc1csc(-c2ccccc2)n1 (stereo not drawn) [Example 210, Optically Active isopropyl cis-3-((methylsulfonyl)amino)-2-((2-phenyl-1,3-thiazol-4-yl)methyl)piperidine-1-carboxylate] |
| 97 | CS(=O)(=O)N[C@H]1CCN(C(=O)C2CCC2)[C@H]1Cc1cccc(-c2ccccc2)c1 [Example 261, N-((2S,3S)-2-(biphenyl-3-ylmethyl)-1-(cyclobutylcarbonyl)pyrrolidin-3-yl)methanesulfonamide] |
| 101 | CS(=O)(=O)N[C@H]1CCN(C(=O)C2CCC2)[C@H]1Cc1cccc(-c2cccc(F)c2)c1 [Example 262, N-((2S,3S)-1-(cyclobutylcarbonyl)-2-((3′-fluorobiphenyl-3-yl)methyl)pyrrolidin-3-yl)methanesulfonamide] |
| 107 | CS(=O)(=O)N[C@H]1CCN(C(=O)C2(F)CCC2)[C@H]1Cc1cccc(-c2cccc(F)c2)c1 [Example 266, N-((2S,3S)-2-((3′-fluorobiphenyl-3-yl)methyl)-1-((1-fluorocyclobutyl)carbonyl)pyrrolidin-3-yl)methanesulfonamide] |
| 105 | CC1(C(=O)N2CC[C@H](NS(C)(=O)=O)[C@@H]2Cc2cccc(-c3cccc(F)c3)c2)CCC1 [Example 305, N-((2S,3S)-2-((3′-fluorobiphenyl-3-yl)methyl)-1-((1-methylcyclobutyl)carbonyl)pyrrolidin-3-yl)methanesulfonamide] |
| 100 | CS(=O)(=O)N[C@H]1CCN(C(=O)C23CC(C2)C3)[C@H]1Cc1cccc(-c2cccc(F)c2)c1 [Example 306, N-((2S,3S)-1-(bicyclo[1.1.1]pent-1-ylcarbonyl)-2-((3′-fluorobiphenyl-3-yl)methyl)pyrrolidin-3-yl)methanesulfonamide] |
| 102 | CS(=O)(=O)N[C@H]1CCN(C(=O)C23CC(C2)C3)[C@H]1Cc1cccc(-c2cc(F)cc(F)c2)c1 [Example 307, N-((2S,3S)-1-(bicyclo[1.1.1]pent-1-ylcarbonyl)-2-((3′,5′-difluorobiphenyl-3-yl)methyl)pyrrolidin-3-yl)methanesulfonamide] |
| 107 | CS(=O)(=O)N[C@H]1CCN(C(=O)C2(O)CCC2)[C@H]1Cc1cccc(-c2cccc(F)c2)c1 [Example 308, N-((2S,3S)-2-((3′-fluorobiphenyl-3-yl)methyl)-1-((1-hydroxycyclobutyl)carbonyl)pyrrolidin-3-yl)methanesulfonamide] |
| 101 | CS(=O)(=O)N[C@H]1CCN(C(=O)C2(C(F)(F)F)CCC2)[C@H]1Cc1cccc(-c2cccc(F)c2)c1 [Example 309, N-((2S,3S)-2-((3′-fluorobiphenyl-3-yl)methyl)-1-((1-(trifluoromethyl)cyclobutyl)carbonyl)pyrrolidin-3-yl)methanesulfonamide] |
| 102 | CS(=O)(=O)N[C@H]1CCN(C(=O)C2CCC2)[C@H]1Cc1cccc(-c2cc(F)cc(F)c2)c1 [Example 310, N-((2S,3S)-1-(cyclobutylcarbonyl)-2-((3′,5′-difluorobiphenyl-3-yl)methyl)pyrrolidin-3-yl)methanesulfonamide] |
| 103 | Cc1cccc(-c2cccc(C[C@H]3[C@@H](NS(C)(=O)=O)CCN3C(=O)C3CCC3)c2)c1 [Example 311, N-((2S,3S)-1-(cyclobutylcarbonyl)-2-((3′-methylbiphenyl-3-yl)methyl)pyrrolidin-3-yl)methanesulfonamide] |
| 103 | COCS(=O)(=O)N[C@H]1CCN(C(=O)C2CCC2)[C@H]1Cc1cccc(-c2cccc(F)c2)c1 [Example 312, N-((2S,3S)-1-(cyclobutylcarbonyl)-2-((3′-fluorobiphenyl-3-yl)methyl)pyrrolidin-3-yl)-1-methoxymethanesulfonamide] |
| 100 | CS(=O)(=O)N[C@H]1CCN(C(=O)N2CCC2)[C@H]1Cc1cccc(-c2cccc(F)c2)c1 [Example 313, N-((2S,3S)-1-(azetidin-1-ylcarbonyl)-2-((3′-fluorobiphenyl-3-yl)methyl)pyrrolidin-3-yl)methanesulfonamide] |
| 107 | COC1(C(=O)N2CC[C@H](NS(C)(=O)=O)[C@@H]2Cc2cccc(-c3cccc(F)c3)c2)CCC1 [Example 314, N-((2S,3S)-2-((3′-fluorobiphenyl-3-yl)methyl)-1-((1-methoxycyclobutyl)carbonyl)pyrrolidin-3-yl)methanesulfonamide] |
| 103 | CS(=O)(=O)N[C@H]1CCN(C(=O)C2CCC2)[C@H]1Cc1csc(-c2cccc(F)c2)n1 [Example 320, N-((2S,3S)-1-(cyclobutylcarbonyl)-2-((2-(3-fluorophenyl)-1,3-thiazol-4-yl)methyl)pyrrolidin-3-yl)methanesulfonamide] |
| 104 | O=C(C1CCC1)N1CC[C@H](NS(=O)(=O)C2CC2)[C@@H]1Cc1csc(-c2ccccc2)n1 [Example 321, N-((2S,3S)-1-(cyclobutylcarbonyl)-2-((2-phenyl-1,3-thiazol-4-yl)methyl)pyrrolidin-3-yl)cyclopropanesulfonamide] |
| 103 | COCS(=O)(=O)N[C@H]1CCN(C(=O)C2CCC2)[C@H]1Cc1cccc(-c2ccccc2)c1 [Example 324, N-((2S,3S)-2-(biphenyl-3-ylmethyl)-1-(cyclobutylcarbonyl)pyrrolidin-3-yl)-1-methoxymethanesulfonamide] |
| 104 | CS(=O)(=O)N[C@H]1CCN(C(=O)C2CCO2)[C@H]1Cc1cccc(-c2cccc(F)c2)c1 (stereo partly drawn) [Example 328, N-((2S,3S)-2-((3′-fluorobiphenyl-3-yl)methyl)-1-(oxetan-2-ylcarbonyl)pyrrolidin-3-yl)methanesulfonamide] |
| 102 | CS(=O)(=O)N[C@H]1CCN(C(=O)C2(O)CCC2)[C@H]1Cc1csc(-c2cc(F)cc(F)c2)n1 [Example 339, N-((2S,3S)-2-((2-(3,5-difluorophenyl)-1,3-thiazol-4-yl)methyl)-1-((1-hydroxycyclobutyl)carbonyl)pyrrolidin-3-yl)methanesulfonamide] |
| 103 | CS(=O)(=O)N[C@H]1CCN(C(=O)N2CCC2)[C@H]1Cc1csc(-c2cc(F)cc(F)c2)n1 [Example 340, N-((2S,3S)-1-(azetidin-1-ylcarbonyl)-2-((2-(3,5-difluorophenyl)-1,3-thiazol-4-yl)methyl)pyrrolidin-3-yl)methanesulfonamide] |
| 98 | CS(=O)(=O)N[C@H]1CCN(C(=O)N2CC(F)C2)[C@H]1Cc1cccc(-c2cccc(F)c2)c1 [Example 341, N-((2S,3S)-1-((3-fluoroazetidin-1-yl)carbonyl)-2-((3′-fluorobiphenyl-3-yl)methyl)pyrrolidin-3-yl)methanesulfonamide] |
| 109 | CS(=O)(=O)N[C@H]1CCN(C(=O)N2CC(F)(F)C2)[C@H]1Cc1cccc(-c2cccc(F)c2)c1 [Example 342, N-((2S,3S)-1-((3,3-difluoroazetidin-1-yl)carbonyl)-2-((3′-fluorobiphenyl-3-yl)methyl)pyrrolidin-3-yl)methanesulfonamide] |
| 107 | CC1CCN1C(=O)N1CC[C@H](NS(C)(=O)=O)[C@@H]1Cc1cccc(-c2cccc(F)c2)c1 (stereo partly drawn) [Example 343, N-((2S,3S)-2-((3′-fluorobiphenyl-3-yl)methyl)-1-((2-methylazetidin-1-yl)carbonyl)pyrrolidin-3-yl)methanesulfonamide] |
